The target of assay [1] is Protein arginine N-methyltransferase 5 (Homo sapiens, UniProt O14744). Description: Selectivity interaction (Scintillation proximity assays) EUB0000255b PRMT5. On the technique in general: In a scintillation proximity assay essentially only radioactivity close to the scintillant gives light.
Assay [2] has as its target STE20-like serine/threonine-protein kinase (Homo sapiens, UniProt Q9H2G2). Description: Selectivity interaction (ActivX KiNativ screen (ex vivo kinase selectivity in human PBMCs)) EUB0001619a SLK. The assay is classed as cell-based. Particulars: PBMC, at 1 µM.
The target in assay [3] is Leukocyte tyrosine kinase receptor (Homo sapiens, UniProt P29376). Kind of assay: Selectivity interaction (KinomeScan (DiscoverX)) EUB0000695a LTK. Particulars: at 100 nM.
Chain of Leukocyte tyrosine kinase receptor (P29376 whole entry): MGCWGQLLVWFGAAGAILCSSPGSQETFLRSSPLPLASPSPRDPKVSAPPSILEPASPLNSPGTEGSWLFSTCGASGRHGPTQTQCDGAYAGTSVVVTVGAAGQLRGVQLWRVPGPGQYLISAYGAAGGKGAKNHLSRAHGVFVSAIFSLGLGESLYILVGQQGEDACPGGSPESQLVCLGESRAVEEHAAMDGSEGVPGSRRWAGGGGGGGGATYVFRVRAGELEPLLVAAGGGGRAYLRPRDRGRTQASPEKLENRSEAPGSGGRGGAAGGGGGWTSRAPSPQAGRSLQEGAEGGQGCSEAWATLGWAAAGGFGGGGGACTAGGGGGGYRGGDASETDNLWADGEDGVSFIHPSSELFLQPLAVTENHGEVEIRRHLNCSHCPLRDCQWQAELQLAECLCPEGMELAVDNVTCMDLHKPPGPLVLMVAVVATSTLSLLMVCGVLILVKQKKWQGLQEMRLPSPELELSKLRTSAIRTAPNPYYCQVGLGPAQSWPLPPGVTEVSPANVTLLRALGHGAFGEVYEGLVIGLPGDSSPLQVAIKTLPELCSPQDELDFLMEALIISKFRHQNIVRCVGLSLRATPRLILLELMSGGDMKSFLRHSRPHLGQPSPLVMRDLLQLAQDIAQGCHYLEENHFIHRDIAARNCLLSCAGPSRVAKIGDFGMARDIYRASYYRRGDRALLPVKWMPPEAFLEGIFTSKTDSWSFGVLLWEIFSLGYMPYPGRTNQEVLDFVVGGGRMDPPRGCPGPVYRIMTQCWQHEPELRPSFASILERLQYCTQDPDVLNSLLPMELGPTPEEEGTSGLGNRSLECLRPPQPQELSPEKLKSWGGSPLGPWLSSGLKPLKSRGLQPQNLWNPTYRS
Assay [4] deals with T1, Serine/threonine-protein kinase Nek9 (Homo sapiens) (UniProt Q8TD19).
T1 sequence (whole entry): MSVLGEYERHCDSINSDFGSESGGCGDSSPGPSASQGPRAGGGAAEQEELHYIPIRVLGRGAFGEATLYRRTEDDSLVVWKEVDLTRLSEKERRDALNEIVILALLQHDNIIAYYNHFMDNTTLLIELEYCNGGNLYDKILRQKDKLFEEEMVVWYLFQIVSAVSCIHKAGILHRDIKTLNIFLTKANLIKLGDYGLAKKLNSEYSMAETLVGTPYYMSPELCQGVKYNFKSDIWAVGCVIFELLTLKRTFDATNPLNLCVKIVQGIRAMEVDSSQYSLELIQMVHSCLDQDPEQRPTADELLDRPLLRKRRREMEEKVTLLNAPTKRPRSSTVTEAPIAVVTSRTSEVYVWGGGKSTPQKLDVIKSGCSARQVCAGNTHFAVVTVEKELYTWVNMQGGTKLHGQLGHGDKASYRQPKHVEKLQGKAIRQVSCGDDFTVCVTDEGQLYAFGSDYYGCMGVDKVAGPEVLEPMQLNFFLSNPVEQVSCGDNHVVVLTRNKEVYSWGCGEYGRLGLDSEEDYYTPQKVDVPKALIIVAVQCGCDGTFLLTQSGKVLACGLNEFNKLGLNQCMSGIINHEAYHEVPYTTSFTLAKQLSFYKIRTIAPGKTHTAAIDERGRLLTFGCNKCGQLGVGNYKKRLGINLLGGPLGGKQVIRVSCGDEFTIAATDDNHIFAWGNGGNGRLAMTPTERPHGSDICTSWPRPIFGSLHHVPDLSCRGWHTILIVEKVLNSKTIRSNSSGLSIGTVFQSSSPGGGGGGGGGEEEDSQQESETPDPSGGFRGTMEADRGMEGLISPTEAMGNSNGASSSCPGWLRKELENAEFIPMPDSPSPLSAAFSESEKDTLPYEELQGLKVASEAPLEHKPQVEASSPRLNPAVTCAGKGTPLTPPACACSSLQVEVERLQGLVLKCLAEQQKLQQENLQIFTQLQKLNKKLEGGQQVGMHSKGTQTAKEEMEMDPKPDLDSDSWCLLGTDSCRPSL
Description: Selectivity interaction (KinomeScan (DiscoverX)) EUB0000666a NEK9. As to conditions: at 10 µM.

Assay [5] concerns the target Casein kinase II subunit alpha' (Homo sapiens) (UniProt P19784). Description: Selectivity interaction (KinomeScan (DiscoverX)) EUB0000607a CSNK2A2. Particulars: at 10 µM.
For assay [6], the target named is Dual specificity protein kinase CLK2 (Homo sapiens, UniProt P49760). Description: Selectivity interaction (KinomeScan (DiscoverX)) EUB0001550a CLK2. Particulars: at 1 µM.
Chain of Dual specificity protein kinase CLK2 (P49760 whole entry, looked up, the tested form may be a part): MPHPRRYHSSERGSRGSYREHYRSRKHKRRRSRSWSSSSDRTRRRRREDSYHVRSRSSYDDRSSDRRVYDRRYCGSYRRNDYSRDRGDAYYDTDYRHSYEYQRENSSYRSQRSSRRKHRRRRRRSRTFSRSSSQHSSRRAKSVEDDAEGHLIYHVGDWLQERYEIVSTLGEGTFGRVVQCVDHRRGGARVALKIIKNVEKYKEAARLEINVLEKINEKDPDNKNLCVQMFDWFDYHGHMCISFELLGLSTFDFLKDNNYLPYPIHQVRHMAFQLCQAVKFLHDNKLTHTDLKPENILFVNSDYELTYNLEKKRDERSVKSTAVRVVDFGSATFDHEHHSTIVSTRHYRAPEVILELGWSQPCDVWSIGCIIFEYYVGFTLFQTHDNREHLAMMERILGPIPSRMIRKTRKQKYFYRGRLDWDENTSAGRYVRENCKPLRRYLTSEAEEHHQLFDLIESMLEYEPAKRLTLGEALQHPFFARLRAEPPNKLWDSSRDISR
The target in assay [7] is LIM domain kinase 1 (Homo sapiens) (UniProt P53667). Description: Selectivity interaction (ProQinase) EUB0000171b LIMK1.
Chain of LIM domain kinase 1 (Homo sapiens) (P53667 whole entry, looked up, the tested form may be a part): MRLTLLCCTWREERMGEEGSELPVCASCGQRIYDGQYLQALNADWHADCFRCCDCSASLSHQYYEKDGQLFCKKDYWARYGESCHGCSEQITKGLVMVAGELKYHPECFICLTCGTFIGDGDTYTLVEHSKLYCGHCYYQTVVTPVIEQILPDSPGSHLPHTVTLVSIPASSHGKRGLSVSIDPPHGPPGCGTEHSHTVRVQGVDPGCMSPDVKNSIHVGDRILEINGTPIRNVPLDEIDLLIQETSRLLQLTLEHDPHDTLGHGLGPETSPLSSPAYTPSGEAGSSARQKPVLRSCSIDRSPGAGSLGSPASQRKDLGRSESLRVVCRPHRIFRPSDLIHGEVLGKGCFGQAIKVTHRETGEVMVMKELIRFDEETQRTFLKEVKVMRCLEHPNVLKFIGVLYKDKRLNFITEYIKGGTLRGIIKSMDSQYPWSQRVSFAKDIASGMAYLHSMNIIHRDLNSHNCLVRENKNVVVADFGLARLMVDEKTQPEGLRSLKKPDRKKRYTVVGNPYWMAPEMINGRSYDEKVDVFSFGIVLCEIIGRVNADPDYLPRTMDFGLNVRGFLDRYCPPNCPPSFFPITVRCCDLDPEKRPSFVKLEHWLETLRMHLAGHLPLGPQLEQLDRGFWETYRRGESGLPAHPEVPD
Assay [8] deals with T2, Inhibitor of nuclear factor kappa-B kinase subunit beta (Homo sapiens) (UniProt O14920).
T2 sequence (whole entry): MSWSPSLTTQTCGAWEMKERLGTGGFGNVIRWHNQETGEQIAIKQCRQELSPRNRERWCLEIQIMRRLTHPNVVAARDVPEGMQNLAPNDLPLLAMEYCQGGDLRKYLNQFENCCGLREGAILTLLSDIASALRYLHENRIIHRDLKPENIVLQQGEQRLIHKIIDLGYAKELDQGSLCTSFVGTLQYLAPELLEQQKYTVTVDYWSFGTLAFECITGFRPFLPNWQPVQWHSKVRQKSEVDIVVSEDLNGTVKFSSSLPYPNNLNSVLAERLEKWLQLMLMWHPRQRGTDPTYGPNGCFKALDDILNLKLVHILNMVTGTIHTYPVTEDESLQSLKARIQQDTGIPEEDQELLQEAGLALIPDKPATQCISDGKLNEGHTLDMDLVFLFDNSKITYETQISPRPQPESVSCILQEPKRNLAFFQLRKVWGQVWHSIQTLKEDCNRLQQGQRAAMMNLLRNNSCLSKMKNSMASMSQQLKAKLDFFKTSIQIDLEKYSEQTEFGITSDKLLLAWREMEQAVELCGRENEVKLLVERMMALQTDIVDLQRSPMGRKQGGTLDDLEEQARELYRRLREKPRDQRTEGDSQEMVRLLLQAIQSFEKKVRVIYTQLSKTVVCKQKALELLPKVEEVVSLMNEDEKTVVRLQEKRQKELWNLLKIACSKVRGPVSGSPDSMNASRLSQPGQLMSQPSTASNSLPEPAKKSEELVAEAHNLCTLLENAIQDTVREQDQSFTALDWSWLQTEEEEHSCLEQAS
Kind of assay: Selectivity interaction (Ambit KINOMEscan and KiNATiv profiling in Jurkat cells) EUB0000090b IKBKB. The assay is classed as cell-based. As to conditions: at 1 µM.

Assay [9] concerns the target High affinity nerve growth factor receptor (Homo sapiens, UniProt P04629). Kind of assay: Selectivity interaction (KinomeScan (DiscoverX)) EUB0000655a NTRK1. As to conditions: at 10 µM.
The target in assay [10] is T3, Activin receptor type-1 (Homo sapiens) (UniProt Q04771).
T3 sequence (whole entry): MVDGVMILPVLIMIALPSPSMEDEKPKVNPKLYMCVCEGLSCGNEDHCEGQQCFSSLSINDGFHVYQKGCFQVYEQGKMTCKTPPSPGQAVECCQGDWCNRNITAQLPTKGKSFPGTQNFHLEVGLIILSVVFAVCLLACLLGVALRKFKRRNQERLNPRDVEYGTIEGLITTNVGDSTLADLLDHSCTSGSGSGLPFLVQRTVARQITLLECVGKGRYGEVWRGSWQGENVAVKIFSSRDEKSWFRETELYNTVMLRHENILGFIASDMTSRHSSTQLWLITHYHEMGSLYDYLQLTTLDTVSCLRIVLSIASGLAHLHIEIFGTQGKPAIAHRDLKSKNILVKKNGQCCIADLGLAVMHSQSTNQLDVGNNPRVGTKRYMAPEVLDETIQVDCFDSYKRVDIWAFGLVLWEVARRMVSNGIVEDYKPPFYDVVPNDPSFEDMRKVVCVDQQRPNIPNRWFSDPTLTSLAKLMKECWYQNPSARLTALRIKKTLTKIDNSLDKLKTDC
Description: Selectivity interaction (KinomeScan (DiscoverX)) EUB0000618a ACVR1. Particulars: at 10 µM.

Assay [11] concerns the target Cyclin-dependent kinase 13 (Homo sapiens, UniProt Q14004). Description: Selectivity interaction (KinomeScan (DiscoverX)) EUB0000618a CDK13. Particulars: at 10 µM.

SMILES strings stand for the structures. pIC50: −log10 of the molar value.

Chain of STE20-like serine/threonine-protein kinase (Q9H2G2 whole entry, looked up): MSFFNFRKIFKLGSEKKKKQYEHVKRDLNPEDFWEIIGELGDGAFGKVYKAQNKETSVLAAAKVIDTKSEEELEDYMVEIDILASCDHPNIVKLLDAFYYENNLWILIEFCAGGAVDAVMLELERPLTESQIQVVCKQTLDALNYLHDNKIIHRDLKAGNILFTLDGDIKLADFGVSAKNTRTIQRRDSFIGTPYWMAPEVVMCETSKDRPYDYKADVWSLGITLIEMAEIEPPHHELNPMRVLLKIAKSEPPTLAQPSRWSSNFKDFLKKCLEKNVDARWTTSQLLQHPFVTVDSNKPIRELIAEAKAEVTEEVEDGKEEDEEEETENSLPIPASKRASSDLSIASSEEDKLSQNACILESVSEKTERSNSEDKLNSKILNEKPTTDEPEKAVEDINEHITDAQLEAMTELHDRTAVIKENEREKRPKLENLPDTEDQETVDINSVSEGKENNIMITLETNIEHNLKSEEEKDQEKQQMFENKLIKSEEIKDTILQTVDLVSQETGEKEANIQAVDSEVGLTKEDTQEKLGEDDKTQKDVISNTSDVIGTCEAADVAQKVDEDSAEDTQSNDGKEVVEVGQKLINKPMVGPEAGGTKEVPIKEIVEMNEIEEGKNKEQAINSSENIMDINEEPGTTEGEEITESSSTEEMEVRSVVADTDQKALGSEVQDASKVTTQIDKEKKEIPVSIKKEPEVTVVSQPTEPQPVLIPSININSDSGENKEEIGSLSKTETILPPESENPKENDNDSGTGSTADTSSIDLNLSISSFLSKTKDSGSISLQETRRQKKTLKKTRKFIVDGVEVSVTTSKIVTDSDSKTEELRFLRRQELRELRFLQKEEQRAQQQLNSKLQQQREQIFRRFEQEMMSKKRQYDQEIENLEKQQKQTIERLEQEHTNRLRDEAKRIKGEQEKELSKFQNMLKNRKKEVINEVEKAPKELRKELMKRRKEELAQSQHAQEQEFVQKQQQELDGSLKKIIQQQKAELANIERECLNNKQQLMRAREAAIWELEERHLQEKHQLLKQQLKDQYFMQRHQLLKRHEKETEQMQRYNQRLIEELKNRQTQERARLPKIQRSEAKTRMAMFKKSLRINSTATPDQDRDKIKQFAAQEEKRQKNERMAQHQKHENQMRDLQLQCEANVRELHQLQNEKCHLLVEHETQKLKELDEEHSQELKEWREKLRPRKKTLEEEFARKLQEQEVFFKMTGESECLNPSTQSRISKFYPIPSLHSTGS
Chain of Casein kinase II subunit alpha' (Homo sapiens) (P19784 whole entry, looked up): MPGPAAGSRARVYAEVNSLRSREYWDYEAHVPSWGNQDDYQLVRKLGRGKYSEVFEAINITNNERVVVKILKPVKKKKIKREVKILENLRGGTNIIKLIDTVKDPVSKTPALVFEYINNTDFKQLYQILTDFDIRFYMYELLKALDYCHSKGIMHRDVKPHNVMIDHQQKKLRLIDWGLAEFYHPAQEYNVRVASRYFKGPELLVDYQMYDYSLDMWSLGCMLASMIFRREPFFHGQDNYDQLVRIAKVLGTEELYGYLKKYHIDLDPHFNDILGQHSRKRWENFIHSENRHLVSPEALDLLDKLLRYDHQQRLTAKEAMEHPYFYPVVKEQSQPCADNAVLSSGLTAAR
Chain of Protein arginine N-methyltransferase 5 (O14744 whole entry): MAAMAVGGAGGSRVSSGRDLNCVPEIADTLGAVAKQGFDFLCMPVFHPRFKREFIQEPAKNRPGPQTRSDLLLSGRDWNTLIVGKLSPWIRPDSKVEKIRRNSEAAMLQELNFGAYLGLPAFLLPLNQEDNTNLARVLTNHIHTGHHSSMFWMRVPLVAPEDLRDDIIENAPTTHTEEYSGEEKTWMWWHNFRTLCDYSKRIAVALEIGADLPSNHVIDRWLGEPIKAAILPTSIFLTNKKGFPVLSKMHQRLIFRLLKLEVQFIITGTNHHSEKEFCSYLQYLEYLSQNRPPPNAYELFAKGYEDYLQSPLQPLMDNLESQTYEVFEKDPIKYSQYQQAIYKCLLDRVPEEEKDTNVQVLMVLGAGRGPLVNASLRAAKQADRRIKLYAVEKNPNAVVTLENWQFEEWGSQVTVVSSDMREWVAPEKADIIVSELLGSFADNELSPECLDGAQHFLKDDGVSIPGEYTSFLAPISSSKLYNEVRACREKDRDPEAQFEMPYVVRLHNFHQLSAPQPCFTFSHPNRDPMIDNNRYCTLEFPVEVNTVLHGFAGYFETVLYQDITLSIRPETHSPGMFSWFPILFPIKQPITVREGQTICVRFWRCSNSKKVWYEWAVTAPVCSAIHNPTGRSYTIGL
Chain of High affinity nerve growth factor receptor (P04629 33-796 limits assumed): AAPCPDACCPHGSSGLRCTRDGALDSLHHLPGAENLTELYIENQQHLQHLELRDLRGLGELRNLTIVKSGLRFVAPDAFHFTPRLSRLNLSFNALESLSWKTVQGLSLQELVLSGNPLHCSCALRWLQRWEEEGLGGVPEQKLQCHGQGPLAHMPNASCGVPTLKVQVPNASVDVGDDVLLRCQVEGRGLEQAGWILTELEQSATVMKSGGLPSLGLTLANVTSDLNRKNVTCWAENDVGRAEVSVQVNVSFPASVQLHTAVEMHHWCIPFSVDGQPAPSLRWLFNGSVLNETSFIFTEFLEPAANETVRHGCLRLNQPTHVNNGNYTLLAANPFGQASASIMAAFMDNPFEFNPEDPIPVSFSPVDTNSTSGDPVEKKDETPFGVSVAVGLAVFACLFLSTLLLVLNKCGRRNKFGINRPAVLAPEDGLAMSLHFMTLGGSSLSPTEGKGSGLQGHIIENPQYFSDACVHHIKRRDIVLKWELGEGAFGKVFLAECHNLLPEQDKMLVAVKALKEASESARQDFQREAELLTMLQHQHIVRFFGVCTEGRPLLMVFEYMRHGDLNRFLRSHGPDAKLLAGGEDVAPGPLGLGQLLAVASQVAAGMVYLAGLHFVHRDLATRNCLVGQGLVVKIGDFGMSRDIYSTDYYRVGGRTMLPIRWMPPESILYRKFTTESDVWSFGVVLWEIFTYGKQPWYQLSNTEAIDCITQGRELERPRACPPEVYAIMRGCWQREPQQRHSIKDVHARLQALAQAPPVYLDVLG

For the molecule `COCCN1CCC(c2cc(CN(C)C(=O)c3cccc(Oc4ccccc4)c3)ccn2)CC1`, the pIC50 (usually the IC50 on a negative log10 scale, so that one unit is a factor of ten) in [1] was below 5.00.

On to `N#Cc1cccc(-c2c[nH]c3ncnc(N4CCOCC4)c23)c1`, for which the % of inhibition in [2] is 66%.

`Cc1cc(F)c(C(=O)Nc2cccc(-c3nncn3C(C)C)n2)cc1-n1cnc(C2CC2)c1` yielded a % of control in [3] of 93%.

In turn, `O=C(NOC[C@H](O)CO)c1ccc(F)c(F)c1Nc1ccc(I)cc1F` gave a % of control in [4] of 82%.

In assay [5], `CNC(=O)Nc1ccc(-c2nc(N3CC4CCC(C3)O4)c3cnn(C4CCC5(CC4)OCCO5)c3n2)cc1` had a % of control of 100%.

As to `CN(C)CC#Cc1ccc2[nH]c3c(c2c1)-c1nc(N)ncc1CCC3`, the % of control in assay [6] worked out at 20%.

On to `C=CC(=O)Nc1cccc(C(=O)Nc2ccc(Nc3cc(-c4[nH]c(SC)nc4C)ccn3)cc2)c1`, for which the % of control in assay [7] (at 1 µM) is 72%; in assay [7] (at 5 µM) it was 46%.

On to `CN(C)C/C=C/C(=O)Nc1ccc(C(=O)N2CCCC(Nc3ncc(Cl)c(-c4c[nH]c5ccccc45)n3)C2)cc1` (configuration not stated), for which the % of control in [8] was 73%.

In the case of `CN(C)CCOc1ccc(-c2nc(-c3ccncc3)c(-c3ccc4c(c3)CC/C4=N\O)[nH]2)cc1`, the % of control in assay [9] is 90%.

As for `O[C@H]1CC[C@H](Nc2ncc3nc(Nc4c(F)cc(F)cc4F)n([C@H]4CCOC4)c3n2)CC1`, the % of control in assay [10] came to 100%; in assay [11], 90%.

The values are drawn from ChEMBL document CHEMBL5465560, “Selectivity Literature for EUbOPEN Chemogenomic Library” (2024).
